Experimental data reported in patent publication US20090068290A1, “BIFEPRUNOX DOSES FOR TREATING SCHIZOPHRENIA” (priority 2006, published 2009).

Columns and labels:
[1] = system: adult subjects with schizophrenia; test: Adverse events (TEAE, SAE, special interest, discontinuation, EPS-related TEAE), Clinical Study Three; conditions: Risperidone 6 mg
Procedure: There were four treatment arms in this study, approximately 144 subjects per arm. […] After completing the Single-Blind Placebo Lead-in Period of at least three days, bifeprunox-treated subjects were titrated from 0.25 mg up to 20 mg/day or 30 mg/day according to a standardized titration scheme over a seven- or eight-day period, respectively. When the assigned dose was reached, subjects were maintained at that dose for the remainder of the six week treatment period. […] Subjects were hospitalized (if not already inpatients) after eligibility for study entry was verified, starting from the Screening Visit until at least 10 days after Baseline. Subjects could be hospitalized longer than 10 days if considered medically necessary by the Investigator. Rating scale assessments for efficacy and abnormal movement disorders were done weekly except for Week 5. Safety assessments were performed at Screening, during treatment and at the end of the study. Subject satisfaction with study medication was assessed at Week 6. Samples of whole blood were obtained at Weeks 2, 4, and 6 for determination of bifeprunox in plasma.
EPS were assessed using treatment-emergent adverse events such as akathisia, dyskinesia, parkinsoniam, etc. and/or formal rating scales such as SAS, BAS, and/or AIMS.

[2] = system: adult subjects with schizophrenia; test: CGI Severity of Illness score, Clinical Study One; assay type: in vivo, human; conditions: Risperidone 6 mg, ITT population
Procedure: There were five treatment groups in this study. […] Study medication was administered once daily. After Baseline measurements were performed, the titration phase was begun. Bifeprunox treated subjects were titrated up to 5 mg, 10 mg or 20 mg according to a standardized titration schedule (Day 1: 0.125 mg, Day 2: 0.25 mg, Day 3: 0.5 mg, Day 4: 1.0 mg, Day 5: 2.0 mg, Day 6: 5.0 mg, Day 7: 10.0 mg, Day 8: 20 mg). When the assigned dose was reached, subjects were maintained at that dose for the remainder of the six-week treatment period.
The change in the Positive and Negative Symptom Scale (PANSS) total score, from baseline to endpoint, was the primary outcome measure. Secondary efficacy measures included: PANSS positive, PANSS negative, PANSS general psychopathology (GPP) score, PANSS-derived Brief Psychiatric Rating Scale (BPRS) score, Clinical Global Impressions-Severity of Illness (CGI-S), CGI-Improvement (CGI-I) scores, and responder rates. Safety and tolerability evaluations included extrapyramidal symptoms (EPS), weight gain, lipid profile, and serum prolactin.

[3] = system: adult subjects with schizophrenia; test: PANSS negative symptom subscale score, Clinical Study Two; assay type: in vivo, human; conditions: Risperidone 6 mg, LOCF, ITT
Procedure: Rating scale assessments were performed weekly, except for week 5, to measure the change from baseline to endpoint of the PANSS total score. Other assessments included: PANSS positive symptom subscale score, PANSS negative symptom subscale score, PANSS general pschopathology subscale score, BPRS total score, BPRS psychosis score, the CGI-S score, the CGI-I score, responder rates based on the PANSS total score, and the Calgary Depression Scale for Schizophrenia (CDSS). […]
Subjects who completed this study had the option to continue in the long-term. […] Risperidone-treated subjects were titrated from 2 mg to 6 mg daily over a three-day period and were subsequently maintained at 6 mg/day for the remainder of the treatment period. […] Blood samples were also obtained at Screening/Baseline, Week 3, and Week 6 for clinical laboratory assessments.

SMILES: Cc1nc2n(c(=O)c1CCN1CCC(c3noc4cc(F)ccc34)CC1)CCCC2 [Risperidone, risperidone, reference compound]
- AKATHISIA, % [1]: 3%
- BALANCE DISORDER, % [1]: 1 (<1%)
- DIZZINESS, % [1]: 5%
- DYSARTHRIA, % [1]: 1 (<1%)
- DYSKINESIA, % [1]: 1 (<1%)
- EXTRAPYRAMIDAL DISORDER, % [1]: 1%
- HEADACHE, % [1]: 12%
- HYPOKINESIA, % [1]: 1 (<1%)
- Hypoaesthesia, % [1]: 1 (<1%))
- MUSCULOSKELETAL STIFFNESS, % [1]: 1 (<1%)
- NECK PAIN, % [1]: 1%
- NERVOUS SYSTEM DISORDERS, % [1]: 37%
- PAIN IN EXTREMITY, % [1]: 2%
- PARAESTHESIA, % [1]: 1 (<1%)
- RESTLESS LEGS SYNDROME, % [1]: 1 (<1%)
- SEDATION, % [1]: 8%
- SOMNOLENCE, % [1]: 9%
- SPEECH DISORDER, % [1]: 1 (<1%)
- TREMOR, % [1]: 3%
- Change from Baseline in CGI Severity of Illness Score, Mean (S.D.) ([2]; Endpoint LOCF): −0.76 (0.93)
- Change from Baseline in CGI Severity of Illness Score, Median ([2]; Endpoint LOCF): 0.0
- Change from Baseline in CGI Severity of Illness Score, Mean (S.D.) ([2]; Week 1, LOCF): −0.37 (0.68)
- Change from Baseline in CGI Severity of Illness Score, Median ([2]; Week 1, LOCF): 0.0
- Change from Baseline in CGI Severity of Illness Score, Mean (S.D.) ([2]; Week 2, LOCF): −0.60 (0.83)
- Change from Baseline in CGI Severity of Illness Score, Median ([2]; Week 2, LOCF): 0.0
- Change from Baseline in CGI Severity of Illness Score, Mean (S.D.) ([2]; Week 3, LOCF): −0.70 (0.81)
- Change from Baseline in CGI Severity of Illness Score, Median ([2]; Week 3, LOCF): 0.0
- Change from Baseline in CGI Severity of Illness Score, Mean (S.D.) ([2]; Week 4, LOCF): −0.69 (0.85)
- Change from Baseline in CGI Severity of Illness Score, Median ([2]; Week 4, LOCF): 0.0
- Change from Baseline in PANSS Negative Symptom Subscale Score, Mean (SD) ([3]; Week 1): −1.5 (3.0)
- Change from Baseline in PANSS Negative Symptom Subscale Score, Median ([3]; Week 1): −2
- Change from Baseline in PANSS Negative Symptom Subscale Score, Mean (SD) ([3]; Week 2): −2.9 (4.3)
- Change from Baseline in PANSS Negative Symptom Subscale Score, Median ([3]; Week 2): −3
- Change from Baseline in PANSS Negative Symptom Subscale Score, Mean (SD) ([3]; Week 3): −3.3 (4.9)
- Change from Baseline in PANSS Negative Symptom Subscale Score, Median ([3]; Week 3): −3
- Change from Baseline in PANSS Negative Symptom Subscale Score, Mean (SD) ([3]; Week 4): −3.8 (5.5)
- Change from Baseline in PANSS Negative Symptom Subscale Score, Median ([3]; Week 4): −4
- Change from Baseline in PANSS Negative Symptom Subscale Score, Mean (SD) ([3]; Week 6/Endpoint): −3.8 (5.5)
- Change from Baseline in PANSS Negative Symptom Subscale Score, Median ([3]; Week 6/Endpoint): −3
